The numbers were not newly measured in patent US20140147381A1, “89ZR COMPOUNDS, TO INCLUDE SOMATOSTATIN, APPARATUS AND PRODUCTS COMPRISING SUCH COMPOUNDS, METHODS OF MAKING SAME, AND METHODS OF USING SAME FOR RADIO IMAGING AND/OR TREATMENT” (priority 2012, published 2014), which cites them from elsewhere.

The subject of one data set is carcinoid tumors. The settings on record: carcinoid patients.
For data set [1] the following is noted: small-animal PET.
The conditions of data set [2]: in vitro.

For the compound Interferon, in the data set with carcinoid tumors, the biochemical response rate is on record as 40% and the tumor response rate was 12%. Regarding `[Cl][89Zr]([Cl])([Cl])[Cl]` [[^89Zr]-chloride], the site of accumulation entry in data set [1] (free 89Zr(IV) ions) is on record as “accumulate in the liver”. Take [^89Zr]-DFO: the “stable with respect to ligand dissociation in human serum” value in data set [2] is more than 7 days. For the same compound, the “excreted rapidly via the kidneys within” value in data set [1] was less than 20 min.
